# How the values were obtained:
# Assay type in all cases: functional
# [1] = system: Mus musculus; test: Antitumor activity against B-16 melanoma in BDF1 mice expressed as percentage increase in life span at optimum dose of 6 mg/kg; settings: B16
# [2] = organism: Mus musculus; test: Number of survivors after treating 12 mice (infected with B16 melanoma) for 60 days
# [3] = system: Mus musculus; test: Antitumor activity against P388 leukemia in BDF1/CDF1 mice expressed as percentage increase in life span at optimum dose of 12.5 mg/kg
# [4] = organism: Mus musculus; test: Number of survivors after treating 42 mice (infected with P388 leukemia) for 30 days
smiles,measurement,setting,value
C(=N\NC1=NCCN1)/c1c2ccccc2c(/C=N/NC2=NCCN2)c2ccccc12 [BISANTRENE],ILS at 6 mg/kg,[1],122%
same,Cures,[2],2
same,ILS at 12.5 mg/kg,[3],137%
same,Cures,[4],17
